Source: article PMC5218480 (PLoS ONE, 2017)

Tested on: MV-4-11 cells
Assay: Gene expression microarray analysis (Affymetrix PrimeView) and GSEA
Assay type: cell-based, human
Parameters: RFU PODN (11730768_x_at) / Fold change /veh PODN (11730768_x_at) / RFU LINC00158 (11744669_a_at) / Fold change /veh LINC00158 (11744669_a_at) / RFU DUSP10 (11751237_a_at) / Fold change /veh DUSP10 (11751237_a_at) / RFU ID3 (11757404_x_at) / Fold change /veh ID3 (11757404_x_at) / RFU PLEKHG5 (11737974_s_at) / Fold change /veh PLEKHG5 (11737974_s_at) / RFU LRRC4B (11730491_at) / Fold change /veh LRRC4B (11730491_at) / RFU GIMAP4 (11747438_a_at) / Fold change /veh GIMAP4 (11747438_a_at) / RFU KRT8 (11758183_x_at) / Fold change /veh KRT8 (11758183_x_at) / RFU CNN1 (11734310_a_at) / Fold change /veh CNN1 (11734310_a_at) / RFU VPS37D (11726825_at) / Fold change /veh VPS37D (11726825_at) / RFU C10orf10 (11716522_x_at) / Fold change /veh C10orf10 (11716522_x_at) / RFU KIR2DL2 /// KIR2DL4 /// KIR2DL5A /// KIR2DL5B /// KIR2DS1 /// KIR2DS2 /// KIR2DS3 /// KIR2DS4 /// KIR3DL3 /// KIR3DL3 /// KIR3DS1 (11738374_at) / Fold change /veh KIR2DL2 /// KIR2DL4 /// KIR2DL5A /// KIR2DL5B /// KIR2DS1 /// KIR2DS2 /// KIR2DS3 /// KIR2DS4 /// KIR3DL3 /// KIR3DL3 /// KIR3DS1 (11738374_at) / RFU C1QL1 (11718748_at) / Fold change /veh C1QL1 (11718748_at) / RFU TMPRSS4 (11747572_a_at) / Fold change /veh TMPRSS4 (11747572_a_at) / RFU HAMP (11756126_x_at) / Fold change /veh HAMP (11756126_x_at) / RFU RNFT2 (11725882_a_at) / Fold change /veh RNFT2 (11725882_a_at) / RFU NR4A2 (11747474_a_at) / Fold change /veh NR4A2 (11747474_a_at) / RFU ABCC12 (11746883_a_at) / Fold change /veh ABCC12 (11746883_a_at) / RFU TMEM136 (11760407_x_at) / Fold change /veh TMEM136 (11760407_x_at) / RFU CLDN22 /// WWC2 (11732394_at) / Fold change /veh CLDN22 /// WWC2 (11732394_at) / RFU HLA-DPB1 (11760878_x_at) / Fold change /veh HLA-DPB1 (11760878_x_at) / RFU SPINT1 (11716480_a_at) / Fold change /veh SPINT1 (11716480_a_at) / RFU GAP43 (11754022_s_at) / Fold change /veh GAP43 (11754022_s_at) / RFU A4GNT (11735810_at) / Fold change /veh A4GNT (11735810_at) / RFU PRB3 (11715151_x_at) / Fold change /veh PRB3 (11715151_x_at) / RFU TUBB4B (11761932_at) / Fold change /veh TUBB4B (11761932_at) / RFU CAPN14 (11732068_a_at) / Fold change /veh CAPN14 (11732068_a_at) / RFU TMCC2 (11721928_a_at) / Fold change /veh TMCC2 (11721928_a_at) / RFU IRGQ (11745062_a_at) / Fold change /veh IRGQ (11745062_a_at) / RFU FAM174B (11720279_a_at) / Fold change /veh FAM174B (11720279_a_at) / RFU TMPRSS4 (11748680_a_at) / Fold change /veh TMPRSS4 (11748680_a_at) / RFU FAM212B (11763350_a_at) / Fold change /veh FAM212B (11763350_a_at) / RFU PLEKHG5 (11743358_a_at) / Fold change /veh PLEKHG5 (11743358_a_at) / RFU ZSCAN30 (11745921_a_at) / Fold change /veh ZSCAN30 (11745921_a_at) / RFU CMKLR1 (11741424_a_at) / Fold change /veh CMKLR1 (11741424_a_at) / RFU LOC101060620 /// MAPK8IP1 (11723275_at) / Fold change /veh LOC101060620 /// MAPK8IP1 (11723275_at) / RFU SPTSSB (11747773_x_at) / Fold change /veh SPTSSB (11747773_x_at) / RFU PRSS12 (11739890_at) / Fold change /veh PRSS12 (11739890_at) / RFU BIN1 (11741810_x_at) / Fold change /veh BIN1 (11741810_x_at) / RFU WNT11 (11732464_a_at) / Fold change /veh WNT11 (11732464_a_at) / RFU C10orf10 (11716521_a_at) / Fold change /veh C10orf10 (11716521_a_at) / RFU C5orf56 (11738089_at) / Fold change /veh C5orf56 (11738089_at) / RFU CYB561 (11721691_x_at) / Fold change /veh CYB561 (11721691_x_at) / RFU ANKRD19P (11752326_a_at) / Fold change /veh ANKRD19P (11752326_a_at) / RFU OR2T12 /// OR2T33 /// OR2T8 (11738714_s_at) / Fold change /veh OR2T12 /// OR2T33 /// OR2T8 (11738714_s_at) / RFU VCAN (11748164_a_at) / Fold change /veh VCAN (11748164_a_at) / RFU JSRP1 (11732532_at) / Fold change /veh JSRP1 (11732532_at) / RFU KRTAP10-11 (11738290_x_at) / Fold change /veh KRTAP10-11 (11738290_x_at) / RFU MYO3A (11730013_a_at) / Fold change /veh MYO3A (11730013_a_at) / RFU EBF3 (11725865_a_at) / Fold change /veh EBF3 (11725865_a_at) / RFU CAMK2N1 (11719241_x_at) / Fold change /veh CAMK2N1 (11719241_x_at) / RFU C5orf56 (11738088_a_at) / Fold change /veh C5orf56 (11738088_a_at) / RFU OLFML3 (11715873_a_at) / Fold change /veh OLFML3 (11715873_a_at) / RFU LOC100653217 /// NTM (11731650_a_at) / Fold change /veh LOC100653217 /// NTM (11731650_a_at) / RFU MAPK11 (11762145_a_at) / Fold change /veh MAPK11 (11762145_a_at) / RFU FIZ1 (11724087_x_at) / Fold change /veh FIZ1 (11724087_x_at) / RFU OASL (11726364_x_at) / Fold change /veh OASL (11726364_x_at) / RFU SOX15 (11748057_x_at) / Fold change /veh SOX15 (11748057_x_at) / RFU CD79A (11719716_a_at) / Fold change /veh CD79A (11719716_a_at) / RFU HIST1H1D (11736915_at) / Fold change /veh HIST1H1D (11736915_at) / RFU CASKIN2 (11723855_a_at) / Fold change /veh CASKIN2 (11723855_a_at) / RFU LOC730098 (11760151_x_at) / Fold change /veh LOC730098 (11760151_x_at) / RFU OR4N2 (11742367_at) / Fold change /veh OR4N2 (11742367_at) / RFU PRRT2 (11749266_a_at) / Fold change /veh PRRT2 (11749266_a_at) / RFU SNX32 (11753110_a_at) / Fold change /veh SNX32 (11753110_a_at) / RFU CDHR5 (11726645_a_at) / Fold change /veh CDHR5 (11726645_a_at) / RFU RCAN1 (11760418_a_at) / Fold change /veh RCAN1 (11760418_a_at) / RFU FAM167A (11723789_a_at) / Fold change /veh FAM167A (11723789_a_at) / RFU FAM26E (11764081_at) / Fold change /veh FAM26E (11764081_at) / RFU ISYNA1 (11749810_s_at) / Fold change /veh ISYNA1 (11749810_s_at) / RFU ACY1 (11761880_at) / Fold change /veh ACY1 (11761880_at) / RFU 11764098_at / Fold change /veh 11764098_at / RFU SAMD14 (11745864_x_at) / Fold change /veh SAMD14 (11745864_x_at) / RFU NPB (11741838_a_at) / Fold change /veh NPB (11741838_a_at) / RFU TMPRSS6 (11731388_a_at) / Fold change /veh TMPRSS6 (11731388_a_at) / RFU KRTAP10-2 (11738614_at) / Fold change /veh KRTAP10-2 (11738614_at) / RFU ARHGAP8 /// PRR5-ARHGAP8 (11727945_x_at) / Fold change /veh ARHGAP8 /// PRR5-ARHGAP8 (11727945_x_at) / RFU KRTAP5-7 /// NADSYN1 (11734609_at) / Fold change /veh KRTAP5-7 /// NADSYN1 (11734609_at) / RFU RASL12 (11751679_a_at) / Fold change /veh RASL12 (11751679_a_at) / RFU CDKN2B (11736163_a_at) / Fold change /veh CDKN2B (11736163_a_at) / RFU PRF1 (11729649_at) / Fold change /veh PRF1 (11729649_at) / RFU, ZNF638 /// ZNF638-IT1 / Fold change vs veh, ZNF638 /// ZNF638-IT1 / RFU, PANK3 / Fold change vs veh, PANK3 / RFU, SH3YL1 / Fold change vs veh, SH3YL1 / RFU, ZEB2 / Fold change vs veh, ZEB2 / RFU, NRIP1 / Fold change vs veh, NRIP1 / RFU, PTTG1IP / Fold change vs veh, PTTG1IP / RFU, CAPN2 / Fold change vs veh, CAPN2 / RFU, MED14 / Fold change vs veh, MED14 / RFU, SNORA58 / Fold change vs veh, SNORA58 / RFU, C1orf63 / Fold change vs veh, C1orf63 / RFU, LRRFIP1 / Fold change vs veh, LRRFIP1 / RFU, NDUFAF7 / Fold change vs veh, NDUFAF7 / RFU, SLC12A2 / Fold change vs veh, SLC12A2 / RFU, IBTK / Fold change vs veh, IBTK / RFU, ESF1 / Fold change vs veh, ESF1 / Fold change vs veh, TMEM50B / RFU, TAOK1 / Fold change vs veh, TAOK1 / RFU, ACBD3 / Fold change vs veh, ACBD3 / RFU, TMA16 / Fold change vs veh, TMA16 / RFU, RWDD3 / Fold change vs veh, RWDD3 / RFU, BCAT1 / Fold change vs veh, BCAT1 / RFU, EDEM3 / Fold change vs veh, EDEM3 / RFU, TMEM33 / Fold change vs veh, TMEM33 / RFU, WDR75 / Fold change vs veh, WDR75 / RFU, AHCTF1 / Fold change vs veh, AHCTF1 / RFU, TFRC / Fold change vs veh, TFRC / RFU, ZDHHC17 / Fold change vs veh, ZDHHC17 / RFU, NOM1 / Fold change vs veh, NOM1 / RFU, ARL8B / Fold change vs veh, ARL8B / RFU, ZBTB11 / Fold change vs veh, ZBTB11 / RFU, TAMM41 / Fold change vs veh, TAMM41 / RFU, KIAA1704 /// LOC100996395 / Fold change vs veh, KIAA1704 /// LOC100996395 / RFU, ING1 / Fold change vs veh, ING1 / RFU, TRMT61B / Fold change vs veh, TRMT61B / RFU, FUBP3 / Fold change vs veh, FUBP3 / RFU, TP53 / Fold change vs veh, TP53 / RFU, TNKS2 / Fold change vs veh, TNKS2 / RFU, ZFP14 / Fold change vs veh, ZFP14 / RFU, ACTR2 / Fold change vs veh, ACTR2 / RFU, PPP3R1 / Fold change vs veh, PPP3R1 / RFU, PIK3R1 / Fold change vs veh, PIK3R1 / RFU, HNRNPA1 / Fold change vs veh, HNRNPA1 / RFU, RNF170 / Fold change vs veh, RNF170 / RFU, ZNF28 / Fold change vs veh, ZNF28 / RFU, RNGTT / Fold change vs veh, RNGTT / RFU, OGT / Fold change vs veh, OGT / RFU, BRD1 / Fold change vs veh, BRD1 / RFU, MARS / Fold change vs veh, MARS / RFU, ZNF655 / Fold change vs veh, ZNF655 / RFU, FAHD1 / Fold change vs veh, FAHD1 / RFU, BDP1 / Fold change vs veh, BDP1 / RFU, LRRCC1 / Fold change vs veh, LRRCC1 / RFU, ARID1A / Fold change vs veh, ARID1A / RFU, ZNF146 / Fold change vs veh, ZNF146 / RFU, ZNF330 / Fold change vs veh, ZNF330 / RFU, GPN3 / Fold change vs veh, GPN3 / RFU, C9orf123 / Fold change vs veh, C9orf123 / RFU, N4BP2L2 / Fold change vs veh, N4BP2L2 / RFU, ARFIP1 / Fold change vs veh, ARFIP1 / RFU, FAM179B / Fold change vs veh, FAM179B / RFU, BCL10 / Fold change vs veh, BCL10 / RFU, UHRF1BP1L / Fold change vs veh, UHRF1BP1L / RFU, BET1 / Fold change vs veh, BET1 / RFU, CNOT2 / Fold change vs veh, CNOT2 / RFU, ZNF268 / Fold change vs veh, ZNF268 / Fold change vs veh, ZNF507 / RFU, DGCR2 / Fold change vs veh, DGCR2 / RFU, WDSUB1 / Fold change vs veh, WDSUB1 / Fold change vs veh, HSP90B1 /// MIR3652 / RFU, ADSS / Fold change vs veh, ADSS / RFU, GK / Fold change vs veh, GK / RFU, ZNF148 / Fold change vs veh, ZNF148 / RFU, TAF9 / Fold change vs veh, TAF9 / RFU, SLC1A5 / Fold change vs veh, SLC1A5 / RFU, SLMO2 / Fold change vs veh, SLMO2 / RFU, ABCC4 / Fold change vs veh, ABCC4 / RFU, LOC101060439 /// RAP1B / Fold change vs veh, LOC101060439 /// RAP1B / RFU, RFX7 / Fold change vs veh, RFX7 / RFU, GTPBP10 / Fold change vs veh, GTPBP10 / RFU, CNEP1R1 / Fold change vs veh, CNEP1R1 / RFU, BIVM-ERCC5 /// ERCC5 / Fold change vs veh, BIVM-ERCC5 /// ERCC5 / RFU, ILF3 / Fold change vs veh, ILF3 / RFU 11762660_at / Fold change /veh 11762660_at / RFU VCAN (11757783_s_at) / Fold change /veh VCAN (11757783_s_at) / RFU DDX43 (11728927_at) / Fold change /veh DDX43 (11728927_at) / RFU KRT8 (11758188_x_at) / Fold change /veh KRT8 (11758188_x_at) / RFU NKD1 (11759106_at) / Fold change /veh NKD1 (11759106_at) / RFU SRD5A1 (11742802_a_at) / Fold change /veh SRD5A1 (11742802_a_at) / RFU TPSAB1 /// TPSB2 (11721975_s_at) / Fold change /veh TPSAB1 /// TPSB2 (11721975_s_at) / RFU GSTM3 (11746129_a_at) / Fold change /veh GSTM3 (11746129_a_at) / RFU IL23R (11737362_x_at) / Fold change /veh IL23R (11737362_x_at) / RFU TMEM51 (11727254_a_at) / Fold change /veh TMEM51 (11727254_a_at) / RFU PIWIL2 (11732686_x_at) / Fold change /veh PIWIL2 (11732686_x_at) / RFU ORM1 (11744905_x_at) / Fold change /veh ORM1 (11744905_x_at) / RFU CCDC152 (11743942_at) / Fold change /veh CCDC152 (11743942_at) / RFU ECM1 (11717891_a_at) / Fold change /veh ECM1 (11717891_a_at) / RFU IL23R (11748794_a_at) / Fold change /veh IL23R (11748794_a_at) / RFU TNFAIP8L3 (11732012_x_at) / Fold change /veh TNFAIP8L3 (11732012_x_at) / RFU MBOAT4 (11741988_at) / Fold change /veh MBOAT4 (11741988_at) / RFU 11764193_at / Fold change /veh 11764193_at / RFU TMEM53 (11763286_at) / Fold change /veh TMEM53 (11763286_at) / RFU MAGEB2 (11727129_at) / Fold change /veh MAGEB2 (11727129_at) / RFU TMEM200A (11744735_a_at) / Fold change /veh TMEM200A (11744735_a_at) / RFU CCDC152 (11751479_a_at) / Fold change /veh CCDC152 (11751479_a_at) / RFU FAM211A (11726209_a_at) / Fold change /veh FAM211A (11726209_a_at) / RFU RGS16 (11746705_a_at) / Fold change /veh RGS16 (11746705_a_at) / RFU VCAN (11755009_s_at) / Fold change /veh VCAN (11755009_s_at) / RFU RHOB (11743442_s_at) / Fold change /veh RHOB (11743442_s_at) / RFU RGS16 (11720943_a_at) / Fold change /veh RGS16 (11720943_a_at) / RFU RGS16 (11720944_at) / Fold change /veh RGS16 (11720944_at) / RFU, VPS4B / Fold change vs veh, VPS4B / RFU, CREB1 / Fold change vs veh, CREB1 / RFU, DNAJC13 / Fold change vs veh, DNAJC13 / RFU, GNAQ / Fold change vs veh, GNAQ / RFU, CDK5R1 / Fold change vs veh, CDK5R1 / RFU, ZRANB3 / Fold change vs veh, ZRANB3 / RFU, CUL4A / Fold change vs veh, CUL4A / RFU, CCNY / Fold change vs veh, CCNY / RFU, UFL1 / Fold change vs veh, UFL1 / RFU, COG3 / Fold change vs veh, COG3 / RFU, DIAPH2 / Fold change vs veh, DIAPH2 / RFU, SKA2 / Fold change vs veh, SKA2 / RFU, AFF3 / Fold change vs veh, AFF3 / RFU, LMF1 / Fold change vs veh, LMF1 / RFU, IPO11 / Fold change vs veh, IPO11 / RFU, DFFB / Fold change vs veh, DFFB / RFU, FOXP1 / Fold change vs veh, FOXP1 / RFU, CARD8 / Fold change vs veh, CARD8 / RFU, STRN3 / Fold change vs veh, STRN3 / RFU, ADK / Fold change vs veh, ADK / RFU, RASSF2 / Fold change vs veh, RASSF2 / RFU, WIPF1 / Fold change vs veh, WIPF1 / RFU, LARP1B / Fold change vs veh, LARP1B / RFU, RASA1 / Fold change vs veh, RASA1 / RFU, RB1 / Fold change vs veh, RB1 / RFU, PPFIA1 / Fold change vs veh, PPFIA1 / RFU, MAT2A / Fold change vs veh, MAT2A / RFU, CCT5 / Fold change vs veh, CCT5 / RFU, WDR92 / Fold change vs veh, WDR92 / RFU, CUX1 / Fold change vs veh, CUX1 / RFU, TTC7A / Fold change vs veh, TTC7A / RFU, TMEM135 / Fold change vs veh, TMEM135 / RFU, DEPTOR / Fold change vs veh, DEPTOR / RFU, CPM / Fold change vs veh, CPM / RFU, DNAJB6 / Fold change vs veh, DNAJB6 / RFU, CACNA2D3 / Fold change vs veh, CACNA2D3 / RFU, DTX4 / Fold change vs veh, DTX4 / RFU, TFCP2 / Fold change vs veh, TFCP2 / RFU, GMCL1 /// GMCL1P1 / Fold change vs veh, GMCL1 /// GMCL1P1 / RFU, AEBP2 / Fold change vs veh, AEBP2 / RFU, SNHG1 /// SNORD22 /// SNORD25 /// SNORD26 /// SNORD27 /// SNORD28 /// SNORD29 /// SNORD31 / Fold change vs veh, SNHG1 /// SNORD22 /// SNORD25 /// SNORD26 /// SNORD27 /// SNORD28 /// SNORD29 /// SNORD31 / Fold change (Aza/veh), C12orf56 (ProbeSet 11735607_a_at) / Fold change (ACY-1035/veh), C12orf56 (ProbeSet 11735607_a_at) / Fold change (Aza/veh), FGFR1OP (ProbeSet 11751329_s_at) / Fold change (ACY-1035/veh), FGFR1OP (ProbeSet 11751329_s_at) / Fold change (Aza/veh), VPS36 (ProbeSet 11739960_a_at) / Fold change (ACY-1035/veh), VPS36 (ProbeSet 11739960_a_at) / RFU SYPL1 (11715823_x_at) / Fold change /veh SYPL1 (11715823_x_at) / RFU IGFBP7 (11715501_s_at) / Fold change /veh IGFBP7 (11715501_s_at) / RFU REEP3 (11722064_at) / Fold change /veh REEP3 (11722064_at) / RFU IGLL1 (11728026_x_at) / Fold change /veh IGLL1 (11728026_x_at): dose or concentration left out as unconfirmed
Details: ProbeSet 11725100_s_at; LIST B

For Nc1ncn([C@@H]2O[C@H](CO)[C@@H](O)[C@H]2O)c(=O)n1 [azacitidine], the “RFU, ESF1” value was 107.31 RFU.
